# Columns and labels:
# Format in all cases: cell-based
# HPV-negative cell lines = experiment: Rb family protein and cleaved caspase-3 levels in HPV-negative cells
# Source text: The effect of RB1 silencing on the expression of other RB family members (RBL1, RBL2) was also examined. It was observed that the levels of RBL1 remained unchanged with the treatment. However, the protein levels of RBL2 decreased with RB1 silencing as well as with alisertib treatment. The effect of RB1 silencing on RBL2 was likely due to pooled siRNAs. Using RB1 shRNA, an effect of RB1 depletion on RBL2 was not observed, but the enhanced alisertib-induced apoptosis was observed, supporting a role for RB1 alone in this effect.
# A decrease of Rb protein expression following Aurora kinase inhibition was noted, that may be related to G2/M cell cycle arrest. Alternatively, it may be that the HPV negative cells with low Rb expression are the ones that survive after Aurora inhibition. To test this at the single cell level, two HPV-negative cell lines were co-stained with anti-Rb labelled with FITC conjugate and anti-cleaved caspase-3 labelled with TRITC and treated with alisertib or vehicle control. As expected in these unsynchronized cells, Rb expression was detectable, but modestly heterogeneous in control cells. […] Consistent with prior data, cells with higher Rb levels have no or very low levels of cleaved caspase-3. Cells with lower Rb levels have modest levels of cleaved caspase-3.
# [1] = system: 17 HPV-negative HNSCC and cervical squamous cancer cell lines; experiment: High-throughput drug screen (HTDS), cell death by AOC_LD, HPV-negative cell lines
# Description: The concordance correlation coefficient was computed to assess the reproducibility of the normalized growth rates of the 2 replicates. […] A chi-square test was applied to compare drug classification and the cluster membership. The Fisher exact test was applied to compare mutations status (wild-type and mutant) and drugs' response data (sensitive and resistant).
# The effects of 864 unique drugs from 51 classes was tested in 16 HPV-positive and 17 HPV-negative HNSCC and cervical squamous cancer cell lines (Table 2) that were characterized previously (Kaiu, et al., Oncotarget 2017; 8(49):86369-83).
# [2] = system: 2 HPV-positive cell lines with TRIP13 overexpression; experiment: Apoptosis with TRIP13 overexpression, HPV-positive cells; details: 300 nmol/L, 24 or 32 hours
# Description: (§1) FIG. 5A, two HPV-positive cell lines (CASKI and SIHA) were transfected with BUB1B or MAD2L1 siRNA and then treated for 24 hours with 300 nmol/L alisertib before lysis and immunoblotting with the indicated antibodies. FIG. 5B, TRIP13 was transiently overexpressed (Ox) in 2 HPV-positive cell lines that were treated for 24 hours with 300 nmol/L alisertib before lysis and immunoblotting for the indicated proteins. FIG. 5C, HPV-positive cell lines with TRIP13 overexpression were treated with 300 nmol/L alisertib for 32 hours and then stained for annexin V-PE/7AAD staining and analysis with flow cytometry to measure apoptosis. The bar graph represents the ratio of apoptosis (late plus early) among different groups. Values are the means±the standard deviations for 3 independent experiments. ** P≤0.01; *** P≤0.001; unpaired, 2-tailed Student t-test. FIG. 5D, HN31 (left panel) and MDA886LN (right panel) cells expressing RB1 or control shRNA were transfected with a plasmid for TRIP13. After 24 hours, cells were treated with 300 nmol/L alisertib and then lysed for immunoblotting. Cl, cleaved; Fl, full length; GAPDH, glyceraldehyde 3-phosphate dehydrogenase.
# In normal cells, prolonged mitosis resulting from Mad2 overexpression can lead to G1 arrest or mitotic cell death, so it is unclear why Mad2 overexpression is tolerated in HPV-positive cancers. […]
# [3] = system: HN31 cells stably transfected with an E7 plasmid; experiment: Apoptosis in HPV-negative cells overexpressing E7; details: 300 nmol/L, 24 hours
# Description: Each data point represents 1 cell line. Box plots show the median pRb […] levels and 95% confidence intervals across all cell lines in the category. t-test P=0.0097. FIG. 4B, HPV-negative HNSCC cells (HN31, UMSCC4, and MDA886LN) were infected with distinct, lentivirus-based shRNAs (Sh2, Sh4, and Sh6) to stably knock down the expression of RB1 or were treated with control (Ctrl) shRNA. Cells were then treated with 300 nmol/L alisertib for 24 hours before annexin V-PE/7AAD staining and analysis with flow cytometry. The bar graph represents the ratio of apoptosis (late plus early) among different groups. Values are the means±the standard deviations for 3 independent experiments. *P<0.05; **P<0.005; unpaired, 2-tailed Student t-test. FIG. 4C, cells from FIG. 4B were treated with 300 nmol/L alisertib for 24 hours before lysis and immunoblotting with the indicated antibodies. FIG. 4D-E, HN31 cells were stably transfected with an E7 plasmid and treated with 300 nmol/L alisertib for 24 hours before lysis and immunoblotting with (FIG. 4D) the indicated antibodies or (FIG. 4E) annexin-PE staining to measure apoptosis. Values are the means±the standard deviations for 3 independent experiments. ** P≤0.01; *** P≤0.001. FIG. 4F, two HPV-positive cell lines were transfected with 10 nmol/L siRNA oligonucleotides specific to E7 or with control oligonucleotides. […]
# [4] = system: HPV-positive cell lines (CASKI and SIHA); experiment: Apoptosis immunoblot after BUB1B or MAD2L1 siRNA; details: 300 nmol/L, 24 hours
# Description: as §1, with “dehydrogenase. […]” for “dehydrogenase.”
# [5] = two HPV-negative cell lines, vs control cells
smiles,measurement,setting,value
"COc1cc(Nc2ncc3c(n2)-c2ccc(Cl)cc2C(c2c(F)cccc2OC)=NC3)ccc1C(=O)O [ALISERTIB, alisertib]",protein levels of RBL2,HPV-negative cell lines,decreased
same,Rb expression (single cell staining),HPV-negative cell lines; [5],notably lower
same,cleaved caspase 3 (single cell staining),HPV-negative cell lines; [5],slightly higher
same,HPV negative Resistant (number of cell lines),[1]; resistant = AOC_LD 0,16
same,HPV negative Sensitive (number of cell lines),[1]; sensitive = AOC_LD greater than 0,1
same,"apoptosis with TRIP13 overexpression (PARP and caspase-3 cleavage, annexin V)",[2],partial rescue
same,"apoptosis (cleaved caspase-3, PARP, annexin V)",[3],selectively enhanced apoptosis
same,apoptosis with reduced levels of Mad2 or BUB1B,[4],rescued the cells from alisertib-induced apoptosis

# From patent US20260258420A1, “COMPOSITIONS AND METHODS FOR THE TREATMENT OF HUMAN PAPILLOMAVIRUS-DRIVEN CANCERS” (priority 2023, published 2026)
